# From patent US9733262B2, “Method for measuring blood coagulation” (SEKISUI MEDICAL CO., LTD., priority 2009, dated 2017)
# Structures can show the parent of a compound that is named as a salt.
# System: commercially available normal plasma (Coagtrol N)
# Test: Fibrinogen measurement by thrombin time method: coagulation time and change in scattered light intensity of normal plasma after adding thrombin reagent
# Format: biochemical
# Settings: for coagulation time versus addition amount (FIG. 3): agent added to HEPES buffer (pH 7.5) specimen diluent, buffer alone 4.6 seconds
# Procedure: When a fibrinogen concentration in a plasma specimen is measured by a thrombin time method, in general, thrombin is added to plasma to measure a coagulation time, and the concentration is determined from a standard curve prepared using standard solutions having known fibrinogen concentrations. In the procedure, 90 μL of a specimen diluent are added to and mixed with 10 μL of specimen plasma, subsequently 50 μL of a thrombin-containing reagent are added as a blood coagulation activator-containing reagent, and a coagulation time is measured.
# In this example, commercially available normal plasma (Coagtrol N, manufactured by Sysmex Corporation) as the plasma specimen, a Coagpia Fbg thrombin reagent (manufactured by Sekisui Medical Co., Ltd.) as the thrombin-containing reagent, and a full-automated blood coagulation time analyzer Coagrex 800 (manufactured by Sysmex Corporation) as a coagulation time measurement apparatus were used. This apparatus employs a scattered light detection method, and change data of scattered light intensity with time can also be obtained along with the coagulation time.
# When an HEPES buffer (pH 7.5) was used as the specimen diluent, the commercially available normal plasma coagulated in several seconds (4.6 seconds).
# Commercially available normal plasma was measured in the same manner as in Example 1 using the specimen diluent (HEPES buffer, pH 7.5) in which the amount of the blood coagulation time prolonging agent added was adjusted so as to obtain the similar coagulation time. The comparative results of the maximum of a change ΔH in scattered light intensity and of the simultaneous reproducibility of the measurements between in the conventional method and in the present invention were shown in Table 1.
# A specimen diluent containing sodium chloride as the blood coagulation time prolonging agent was defined as a conventional method A and a specimen diluent further containing polyethylene glycol (molecular weight: 20000) (hereinafter, referred to as PEG 20000) as an enhancer of a change in light intensity in the conventional method A was defined as a conventional method B, and the specimen diluents were compared with a specimen diluent employing aminoguanidine hydrochloride (present invention) which served as both of the blood coagulation time prolonging agent and the enhancer of a change in light intensity. It should be noted that an HEPES buffer (pH 7.5) was used as a buffer in all of the cases. Further, the concentration of PEG 20000 to be added in the conventional method B was set to 0.1%, because a large amount of PEG 20000 could increase the viscosity of diluent and reduce the accuracy of sampling. The coagulation time of commercially available normal plasma was measured in the same manner as in Example 1 using each specimen diluent. The change of the scattered light intensity in the conventional method B with the addition of PEG 20000 became larger than in the conventional method A without the addition.
# [1] = Table 1, agent in specimen diluent (HEPES buffer pH 7.5): NaCl 145 mM, NaBr 110, KBr 105, KCl 135, LiCl 135, guanidine HCl 90, guanidine phosphate 30, guanidine sulfamate 55, aminoguanidine HCl 90, arginine HCl 55, arginine methyl ester 17 mM, single measurement for conventional methods (2)-(5), ten times for the others
# [2] = Table 2, specimen diluent HEPES buffer pH 7.5, NaCl 150 mM (A), NaCl 150 mM + PEG 20000 0.1% (B), aminoguanidine hydrochloride 90 mM, mean of three times measurement
Structure (SMILES),Coagulation time [1] [s],coagulation time versus addition amount (FIG. 3),Coagulation time [2] [s]
N=C(N)N.NS(=O)(=O)O [Guanidine sulfamate],11.2,,
[Br-].[Na+] [Sodium bromide],11.3,prolonged in an addition concentration-dependent manner,
N=C(N)N [Guanidine hydrochloride],10.3,,
[Cl-].[K+] [Potassium chloride],10.8,,
N=C(N)N.O=P(O)(O)O [Guanidine phosphate],10.4,,
[Cl-].[Li+] [Lithium chloride],10.8,,
Cl.N=C(N)NCCC[C@H](N)C(=O)O [Arginine hydrochloride],10.3,,
[Br-].[K+] [Potassium bromide],11.4,,
COC(=O)[C@@H](N)CCCNC(=N)N [Arginine methyl ester],11,,
N=C(N)NN [Aminoguanidine hydrochloride],9.7,prolonged in an addition concentration-dependent manner,10.4
[Cl-].[Na+] [Sodium chloride],10.7,prolonged in an addition concentration-dependent manner,11.6
